Results on 7 molecules are retold here after ChEMBL document CHEMBL1152752, “Chemical components and its antioxidant properties in vitro: an edible marine brown alga, Ecklonia cava” (Bioorg Med Chem, 2009).

Series [1] relates to RAW264.7. In words: Inhibition of Fe(2+)/H2O2-generated hydroxyl radical induced membrane protein oxidation in mouse RAW264.7 cells at 1 uM to 50 uM relative to control. It is filed as functional.
Series [2] can be described thus: Antioxidant activity assessed as Fenton system generated hydroxyl radical scavenging activity by ESR spectrometer. Format: functional.
Series [3] relates to RAW264.7. Kind of series: Antioxidant activity against mouse RAW264.7 cells assessed as reduction of ROS production at 50 uM after 200 mins measured by fluorescent dichlorofluorescein using DCFH-DA substrate. It is filed as functional, cell-based.
The nature of series [4]: Antioxidant activity assessed as superoxide radical scavenging activity. Format: functional.
A short description of series [5]: Antioxidant activity assessed as […] generated peroxyl radical scavenging formation by ESR spectrometer. Format: functional.
The subject of series [6] is RAW264.7. In words: Antioxidant activity against mouse RAW264.7 cells assessed as reduction of ROS production measured by fluorescent dichlorofluorescein using DCFH-DA substrate. Format: functional, cell-based.
Series [7] addresses T1, Myeloperoxidase (Homo sapiens) (UniProt P05164).
T1 sequence (whole entry): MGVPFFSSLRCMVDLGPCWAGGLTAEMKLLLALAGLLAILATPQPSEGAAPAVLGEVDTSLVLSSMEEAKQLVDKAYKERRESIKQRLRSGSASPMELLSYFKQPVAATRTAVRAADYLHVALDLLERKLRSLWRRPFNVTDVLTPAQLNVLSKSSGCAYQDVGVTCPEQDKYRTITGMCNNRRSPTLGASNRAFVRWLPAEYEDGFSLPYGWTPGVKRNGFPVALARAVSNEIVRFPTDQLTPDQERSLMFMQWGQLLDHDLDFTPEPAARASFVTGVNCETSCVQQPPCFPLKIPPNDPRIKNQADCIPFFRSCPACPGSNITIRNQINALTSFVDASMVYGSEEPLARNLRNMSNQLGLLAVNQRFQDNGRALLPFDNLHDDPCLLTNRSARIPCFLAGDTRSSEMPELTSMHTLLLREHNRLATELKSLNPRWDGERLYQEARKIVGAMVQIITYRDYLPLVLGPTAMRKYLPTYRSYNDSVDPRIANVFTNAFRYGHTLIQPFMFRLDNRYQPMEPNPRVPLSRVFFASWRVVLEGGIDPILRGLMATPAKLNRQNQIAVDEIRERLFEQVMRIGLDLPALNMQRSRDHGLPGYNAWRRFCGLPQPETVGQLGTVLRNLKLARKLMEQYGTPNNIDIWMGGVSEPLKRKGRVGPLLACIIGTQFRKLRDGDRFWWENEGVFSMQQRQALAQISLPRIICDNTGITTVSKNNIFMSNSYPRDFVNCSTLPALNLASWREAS
Kind of series: Inhibition of MPO activity in TNF-alpha-stimulated human HL60 cells measured enzyme activity per 10^6 cells at 10 uM by spectrophotometrically. To be noted: HL-60. It is filed as cell-based.

In series [8] the test system is RAW264.7. Kind of series: Antioxidant activity against mouse RAW264.7 cells assessed as reduction of ROS production after 200 mins measured by fluorescent dichlorofluorescein using DCFH-DA substrate. To be noted: TDE = time-dependent effect. It is filed as functional, cell-based.
The target of series [9] is T1, Myeloperoxidase (Homo sapiens). In words: Inhibition of MPO activity in TNF-alpha-stimulated human HL60 cells measured enzyme activity per 10^6 cells by spectrophotometrically. Format: cell-based. To be noted: HL-60.
Series [10] has as its system Radical scavenging activity. Kind of series: Antioxidant activity assessed as DPPH radical scavenging activity. It is filed as functional. Background: DPPH is a stable violet radical that fades when it is reduced.
For series [11], the system named is HL-60. Kind of series: Cytotoxicity against human HL60 cells at 100 uM after 24 hrs by MTT assay. It is filed as functional, cell-based. (In general: Tetrazolium assays rely on reduction of a dye to a coloured formazan, in cell work by metabolically active cells.)
The test system of series [12] is MRC5. Kind of series: Cytotoxicity against human MRC5 cells at 100 uM after 24 hrs by MTT assay. It is filed as cell-based. To be noted: mrc5, 24 h.
Series [13] has as its system RAW264.7. Kind of series: Cytotoxicity against mouse RAW264.7 cells at 100 uM after 24 hrs by MTT assay. It is filed as functional, cell-based.
In series [14] the test system is RAW264.7. In words: Antioxidant activity against mouse RAW264.7 cells assessed as reduction of ROS production at 1 uM after 200 mins measured by fluorescent dichlorofluorescein using DCFH-DA substrate. Format: functional, cell-based.
The test system of series [15] is RAW264.7. In words: Antioxidant activity against mouse RAW264.7 cells assessed as reduction of ROS production at 50 uM after 210 mins measured by fluorescent dichlorofluorescein using DCFH-DA substrate. It is filed as functional. The arrangement: scale not given: the % may be the effect or the level left.
For series [16], the target named is T1, Myeloperoxidase (Homo sapiens). Kind of series: Inhibition of MPO activity in TNF-alpha-stimulated human HL60 cells measured enzyme activity per 10^6 cells at 50 uM by spectrophotometrically. Format: cell-based. The settings on record: HL-60.
For series [17], the system named is RAW264.7. Kind of series: Increase in intracellular GSH level in mouse RAW264.7 cells assessed as monobromobimane-GSH fluorescence intensity at 20 uM after 120 mins. It is filed as functional, cell-based.

The source made the active and inactive calls. The rule behind the calls is not given here.

Regarding `Oc1cc(O)cc(Oc2c(O)cc(O)c3c2Oc2c(O)cc(O)c(-c4c(O)cc(O)c5c4Oc4c(O)cc(O)c(Oc6cc(O)cc(O)c6)c4O5)c2O3)c1`, the “inhibition (INH)” value in [1] was 67.3%. The IC50 (in general, the point on the concentration scale where inhibition reaches its midpoint) was determined as 29.7 µM in series [2], 15.9 µM in [4], 17.1 µM in [5] and 8.69 µM in series [10]. Further, the outcome in series [3], in series [14] and in series [17] was Active. Also, the Activity result in [6] is “Dose-dependent effect”; in series [7], 0.53 IU; in series [8] it was “tde”; in series [9], “Dose-dependent effect”; in series [12], “Non-toxic”; in [15], 83.58%. Moreover, the Activity in series [16] was found to be 0.47 IU. The outcome in series [11] and in series [13] was inactive.

In the case of `Oc1cc(O)cc(O)c1` [PHLOROGLUCINOL], the IC50 in series [2] is 392 µM; in series [4], 115 µM; in series [5], 129 µM. Moreover, the result in series [11] and in series [13] was inactive. Moreover, the Activity entry in series [12] is “Non-toxic”.

On to `Oc1cc(O)cc(Oc2c(O)cc(O)c3c2Oc2c(O)cc(O)cc2O3)c1` [ECKOL], for which the IC50 was determined as 51.8 µM in series [2], 26.5 µM in [4], 28.4 µM in series [5] and 22.9 µM in series [10]. For the same molecule, the outcome in series [11] and in series [13] was inactive. The Activity entry in series [12] was “Non-toxic”.

Take `Oc1cc(O)cc(Oc2c(O)cc(O)c3c2Oc2c(O)cc4oc5c(Oc6cc(O)cc(O)c6)c(O)cc(O)c5c4c2O3)c1` [PHLOROFUCOFUROECKOL A]: the result in [1] was Active. In addition, the IC50 in series [2] came out at 39.2 µM; in series [4], 21.6 µM; in series [5], 21.4 µM; in [10] it was 17.7 µM. For the same molecule, the Activity entry in series [6] was “Dose-dependent effect”; in series [8], “tde”; in [12], “Non-toxic”. Moreover, the result in [11] and in series [13] was inactive.

For `Oc1cc(O)c(Oc2cc(O)cc(O)c2Oc2cc(O)cc(O)c2-c2c(O)cc(O)cc2O)c(O)c1` [FUCODIPHLOROETHOL G], the IC50 came out at 33.5 µM in series [2], 18.6 µM in [4], 18.1 µM in [5] and 14.7 µM in series [10]. Also, the result in series [3] and in series [17] was Active. Further, the Activity entry in series [6] is “Dose-dependent effect”; in series [8], “tde”; in series [12] it was “Non-toxic”; in series [15] it was 75.6%. Also, the result in series [11] and in [13] was inactive.

Regarding `Oc1cc(O)cc(Oc2c(O)cc(O)c3c2Oc2c(O)cc(Oc4c(O)cc(Oc5c(O)cc(O)c6c5Oc5c(O)cc(O)cc5O6)cc4O)cc2O3)c1` [DIECKOL], the “inhibition (INH)” value in [1] is listed as 70.5%. Also, the IC50 amounted to 28.6 µM in [2], 16.2 µM in [4], 14.5 µM in series [5] and 8.28 µM in series [10]. For the same molecule, the outcome in series [3], in [14] and in series [17] was Active. The Activity result was “Dose-dependent effect” in [6]; 0.51 IU in [7]; “tde” in series [8]; “Dose-dependent effect” in [9]; “Non-toxic” in series [12]; 84.27% in [15]. The same molecule had an Activity in [16] of 0.45 IU. Moreover, the outcome in series [11] and in series [13] was inactive.

As to `Oc1cc(O)cc(Oc2c(O)cc(O)c3c2Oc2c(O)cc(Oc4c(O)cc(O)cc4O)cc2O3)c1`, the outcome in series [1] was Active. The IC50 was 39.6 µM in series [2], 21.9 µM in series [4], 22.7 µM in series [5] and 18.6 µM in [10]. The figures for the Activity entry in series [6], in [8] and in [12] were “Dose-dependent effect”, “tde” and “Non-toxic”, respectively. In addition, the result in series [11] and in series [13] was inactive.
